Tests used:
Type in all cases: physicochemical
[1] = Accelerated test, related substances by HPLC; conditions: 40°C±2°C, 75%RH±5%RH; for Impurity content RRT0.55 / Impurity content RRT0.66 / Impurity content RRT0.71 / Impurity content RRT0.94 / Impurity content RRT1.02 / Impurity content RRT1.06 / Impurity content RRT1.08 / Impurity content RRT1.15 / Total impurities: open
Protocol: An investigation method for the accelerated test can be seen in Table 14 below.
Change results of related substances in each crystal form under the accelerated condition (40°C±2°C, 75%RH±5%RH) can be seen in Table 18.
HPLC detection results of related substances under the accelerated condition can be seen as follows: Table 18

[2] = Dynamic vapor sorption (DVS) hygroscopicity
Protocol: Dynamic vapor sorption (DVS) was used to investigate hygroscopicities of an active pharmaceutical ingredient in different crystal forms.
Determination method: • instrument: dynamic vapor sorption analyzer; temperature: 25°C; protective gas and flow rate: N2, 200 mL/min; • dm/dt: 0.002%/min; RH range: 0%RH-100%RH; cycle: 1 full cycle.

[3] = High-humidity test, related substances by HPLC; conditions: 90%RH±5%RH; for Impurity content RRT0.55 / Impurity content RRT0.66 / Impurity content RRT0.71 / Impurity content RRT0.94 / Impurity content RRT1.02 / Impurity content RRT1.06 / Impurity content RRT1.08 / Impurity content RRT1.15 / Total impurities: open
Excerpt: An investigation method for the high-humidity test can be seen in Table 12 below.
Results of related substances in each crystal form under the high-humidity condition (90%RH±5%RH) can be seen in Table 16.
HPLC detection results of related substances under the high-humidity condition can be seen as follows: Table 16

[4] = Light exposure test, related substances by HPLC
Excerpt: An investigation method for the light exposure test can be seen in Table 13 below.
Results of related substances in each crystal form under the light exposure condition (4500lx±500lx) can be seen in Table 17.
HPLC detection results of related substances under the light exposure condition can be seen as follows: Table 17

[5] = Flowability test (angle of repose)
Protocol: A flowability determination method was as follows: an angle of repose was determined by using a device composed of 2 to 3 funnels connected in series in a staggered manner, and drug powder was slowly and uniformly passed through the funnels onto a stationary base with a diameter d, so as to form a symmetric powder pile with a single layer of powder at the bottom. During the formation of the powder pile, a height of the funnels was maintained within 2-4 cm from a top of the powder pile, a height h of the cone was determined, and the angle of repose was calculated as tanθ=h/(d/2).

## C[C@@H](Nc1ccn2ncc(C3=NOC(C)(C)N3)c2n1)c1cc(F)cc(F)c1F [crystal form E]
[1]; 32 days
  Increase of impurity RRT1.08 content: 0.03%
  Impurity content RRT0.55: 0.04%
  Impurity content RRT0.66: 0.21%
  Impurity content RRT0.71: 0.16%
  Impurity content RRT0.94: 0.04%
  Impurity content RRT1.02: 0.20%
  Impurity content RRT1.06: 0.04%
  Impurity content RRT1.08: 0.20%
  Impurity content RRT1.15: 0.05%
  Total impurities: 0.95%
[1]; 0 day
  Impurity content RRT0.55: 0.04%
  Impurity content RRT0.66: 0.21%
  Impurity content RRT0.71: 0.14%
  Impurity content RRT0.94: 0.03%
  Impurity content RRT1.02: 0.21%
  Impurity content RRT1.06: 0.07%
  Impurity content RRT1.08: 0.17%
  Impurity content RRT1.15: 0.03%
  Total impurities: 0.89%
[1]; 5 days
  Impurity content RRT0.55: 0.04%
  Impurity content RRT0.66: 0.21%
  Impurity content RRT0.71: 0.15%
  Impurity content RRT0.94: 0.03%
  Impurity content RRT1.02: 0.21%
  Impurity content RRT1.06: 0.05%
  Impurity content RRT1.08: 0.18%
  Impurity content RRT1.15: 0.03%
  Total impurities: 0.89%
[1]; 11 days
  Impurity content RRT0.55: 0.04%
  Impurity content RRT0.66: 0.21%
  Impurity content RRT0.71: 0.15%
  Impurity content RRT0.94: 0.02%
  Impurity content RRT1.02: 0.21%
  Impurity content RRT1.06: 0.05%
  Impurity content RRT1.08: 0.21%
  Impurity content RRT1.15: 0.03%
  Total impurities: 0.94%
[2]
  Hygroscopicity (conclusion): had hygroscopicity
[2]; humidity 20% or less
  DVS weight loss: up to 3%
[2]; humidity increased from 0% to 30%
  DVS weight loss: approximately 2%
[2]; humidity increased from 90% to 100%
  DVS weight gain: approximately 4%
[2]; humidity reduced from 100% to 90%
  DVS weight loss: approximately 2%
[3]; 32 days
  Increase of impurity RRT1.02 content: no essential changes
  Increase of impurity RRT1.08 content: 0.04%
  Increase of total impurities: 0.05%
  Impurity content RRT0.55: 0.04%
  Impurity content RRT0.66: 0.22%
  Impurity content RRT0.71: 0.15%
  Impurity content RRT0.94: 0.05%
  Impurity content RRT1.02: 0.19%
  Impurity content RRT1.06: 0.04%
  Impurity content RRT1.08: 0.21%
  Impurity content RRT1.15: 0.04%
  Total impurities: 0.94%
[3]; 0 day
  Impurity content RRT0.55: 0.04%
  Impurity content RRT0.66: 0.21%
  Impurity content RRT0.71: 0.14%
  Impurity content RRT0.94: 0.03%
  Impurity content RRT1.02: 0.21%
  Impurity content RRT1.06: 0.07%
  Impurity content RRT1.08: 0.17%
  Impurity content RRT1.15: 0.03%
  Total impurities: 0.89%
[3]; 5 days
  Impurity content RRT0.55: 0.03%
  Impurity content RRT0.66: 0.21%
  Impurity content RRT0.71: 0.15%
  Impurity content RRT0.94: 0.03%
  Impurity content RRT1.02: 0.21%
  Impurity content RRT1.06: 0.05%
  Impurity content RRT1.08: 0.18%
  Impurity content RRT1.15: 0.03%
  Total impurities: 0.89%
[3]; 11 days
  Impurity content RRT0.55: 0.04%
  Impurity content RRT0.66: 0.21%
  Impurity content RRT0.71: 0.14%
  Impurity content RRT0.94: 0.02%
  Impurity content RRT1.02: 0.20%
  Impurity content RRT1.06: 0.05%
  Impurity content RRT1.08: 0.21%
  Impurity content RRT1.15: 0.03%
  Total impurities: 0.89%
[4]; 4500 lx±500 lx, 32 days
  Increase of impurity RRT0.66 content: 0.04%
  Increase of impurity RRT0.71 content: not increased
  Increase of impurity RRT1.02 content: not increased
  Increase of impurity RRT1.08 content: 0.08%
  Increase of total impurities: 0.13%
[4]; 4500lx±500lx, open, 0 day
  Impurity content RRT0.55: 0.04%
  Impurity content RRT0.66: 0.21%
  Impurity content RRT0.71: 0.14%
  Impurity content RRT0.94: 0.03%
  Impurity content RRT1.02: 0.21%
  Impurity content RRT1.06: 0.07%
  Impurity content RRT1.08: 0.17%
  Impurity content RRT1.15: 0.03%
  Total impurities: 0.89%
[4]; 4500lx±500lx, open, 5 days
  Impurity content RRT0.55: 0.03%
  Impurity content RRT0.66: 0.22%
  Impurity content RRT0.71: 0.14%
  Impurity content RRT0.94: 0.02%
  Impurity content RRT1.02: 0.22%
  Impurity content RRT1.06: 0.05%
  Impurity content RRT1.08: 0.20%
  Impurity content RRT1.15: 0.04%
  Total impurities: 0.92%
[4]; 4500lx±500lx, open, 11 days
  Impurity content RRT0.55: 0.04%
  Impurity content RRT0.66: 0.22%
  Impurity content RRT0.71: 0.14%
  Impurity content RRT0.92: 0.03%
  Impurity content RRT0.94: 0.03%
  Impurity content RRT1.02: 0.20%
  Impurity content RRT1.06: 0.04%
  Impurity content RRT1.08: 0.24%
  Impurity content RRT1.15: 0.03%
  Total impurities: 0.98%
[4]; 4500lx±500lx, open, 32 days
  Impurity content RRT0.55: 0.03%
  Impurity content RRT0.66: 0.25%
  Impurity content RRT0.71: 0.13%
  Impurity content RRT0.94: 0.08%
  Impurity content RRT1.02: 0.20%
  Impurity content RRT1.06: 0.04%
  Impurity content RRT1.08: 0.25%
  Impurity content RRT1.15: 0.04%
  Total impurities: 1.02%
[5]
  angle of repose: 37.9 °
